ChEMBL document CHEMBL1127876, “Potent imidazole angiotensinII antagonists: acyl sulfonamides and acyl sulfamides as tetrazole replacements” (Bioorg Med Chem Lett, 1994)

Columns and labels:
[1] = target: T1, Type-2 angiotensin II receptor (Rattus norvegicus, UniProt P35351); assay: In vitro inhibitory activity against angiotensin II (AT2) receptor to displace 125I-Sar,Ile8-AII in rat midbrain
T1 sequence (P35351 whole entry): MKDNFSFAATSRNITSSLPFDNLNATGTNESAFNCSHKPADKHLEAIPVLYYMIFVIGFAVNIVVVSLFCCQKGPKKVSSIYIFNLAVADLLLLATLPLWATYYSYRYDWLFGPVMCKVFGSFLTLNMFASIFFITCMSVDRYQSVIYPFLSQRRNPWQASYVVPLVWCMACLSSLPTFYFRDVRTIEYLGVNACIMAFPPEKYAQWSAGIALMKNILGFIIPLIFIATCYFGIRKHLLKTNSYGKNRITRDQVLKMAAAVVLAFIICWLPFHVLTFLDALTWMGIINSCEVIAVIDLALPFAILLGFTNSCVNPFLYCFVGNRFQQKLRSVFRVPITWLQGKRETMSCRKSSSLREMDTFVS

[2] = target: T2, Type-1 angiotensin II receptor (Oryctolagus cuniculus, UniProt P34976); assay: In vitro inhibitory activity against Angiotensin II receptor, type 1 to displace 125I-Sar,Ile8-AII in rabbit aorta; format: tissue-based
T2 sequence (P34976 whole entry): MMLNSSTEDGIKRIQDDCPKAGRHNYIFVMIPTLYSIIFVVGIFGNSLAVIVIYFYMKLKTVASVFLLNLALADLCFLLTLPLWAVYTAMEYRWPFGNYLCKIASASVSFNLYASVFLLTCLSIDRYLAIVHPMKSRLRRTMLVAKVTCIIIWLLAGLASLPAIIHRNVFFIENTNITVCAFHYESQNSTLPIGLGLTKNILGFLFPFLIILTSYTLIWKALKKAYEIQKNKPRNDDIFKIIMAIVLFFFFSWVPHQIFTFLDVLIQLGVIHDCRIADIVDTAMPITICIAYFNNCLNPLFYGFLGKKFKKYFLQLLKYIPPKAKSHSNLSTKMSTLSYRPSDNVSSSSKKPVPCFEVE

Row | IC50 [1] [µM] | IC50 [2] [µM] | SMILES
1 | > 1 | 0.006 | CCCc1nc(CC)c(C(=O)O)n1Cc1ccc(-c2ccccc2-c2nnn[nH]2)cc1
2 | 2.1 | 0.0026 | CCCc1nc(CC)c(C(=O)OC)n1Cc1ccc(-c2ccccc2S(=O)(=O)NC(=O)C2CC2)cc1
3 | > 50 | 0.013 | CCCCc1nc(Cl)c(C(=O)OC)n1Cc1ccc(-c2ccccc2-c2nn[nH]n2)cc1
4 | 9.5 | 0.002 | CCCCc1nc(Cl)c(C(=O)O)n1Cc1ccc(-c2ccccc2S(=O)(=O)NC(=O)c2ccccc2)cc1
5 | > 30 | 0.008 | CCCc1nc(CC)c(C=O)n1Cc1ccc(-c2ccccc2-c2nnn[nH]2)cc1
6 | > 50 | 0.0029 | CCCCc1ncc(C(=O)O)n1Cc1ccc(-c2ccccc2-c2nn[nH]n2)cc1
7 | 5.3 | 0.0088 | CCCCc1nc(Cl)c(C(=O)OC)n1Cc1ccc(-c2ccccc2S(=O)(=O)NC(=O)c2ccccc2)cc1
8 | > 50 | 0.015 | CCCCc1ncc(C(=O)OC)n1Cc1ccc(-c2ccccc2-c2nn[nH]n2)cc1

Further lines, the compound ahead of its results:

Row | SMILES | IC50 [1] [µM] | IC50 [2] [µM]
9 | CCCc1nc(CC)c(C(=O)OC)n1Cc1ccc(-c2ccccc2S(=O)(=O)NC(=O)c2ccccc2)cc1 | 1 | 0.0005
10 | CCCCc1ncc(C(=O)O)n1Cc1ccc(-c2ccccc2S(=O)(=O)NC(=O)c2ccccc2)cc1 | 4.5 | 0.0062
11 | CCCCc1ncc(C(=O)O)n1Cc1ccc(-c2ccccc2NS(=O)(=O)NC(=O)C2CC2)cc1 | > 10 | 0.0074
12 | CCCCc1ncc(C(=O)OC)n1Cc1ccc(-c2ccccc2S(=O)(=O)NC(=O)c2ccccc2)cc1 | > 1 | 0.021
13 | CCCc1nc(CC)c(C(=O)O)n1Cc1ccc(-c2ccccc2S(=O)(=O)NC(=O)C2CC2)cc1 | > 10 | 0.0043
14 | CCCc1nc(CC)c(C(=O)O)n1Cc1ccc(-c2ccccc2S(=O)(=O)NC(=O)c2ccccc2)cc1 | 7 | 0.0017
15 | CCCCCCCC(=O)NS(=O)(=O)Nc1ccccc1-c1ccc(Cn2c(C(=O)OC)cnc2CCCC)cc1 | 0.5 | 0.0019
16 | CCCCc1ncc(C(=O)OC)n1Cc1ccc(-c2ccccc2S(=O)(=O)NC(=O)C2CC2)cc1 | 8 | 0.039
17 | CCCCc1ncc(C(=O)OC)n1Cc1ccc(-c2ccccc2NS(=O)(=O)NC(=O)c2ccccc2)cc1 | 1.8 | 0.02
18 | CCCCc1ncc(C(=O)O)n1Cc1ccc(-c2ccccc2S(=O)(=O)NC(=O)C2CC2)cc1 | 5.8 | 0.0058
19 | CCCc1nc(CC)c(C=O)n1Cc1ccc(-c2ccccc2S(=O)(=O)NC(=O)C2CC2)cc1 | 2 | 0.012
20 | CCCCCCCC(=O)NS(=O)(=O)Nc1ccccc1-c1ccc(Cn2c(C(=O)O)cnc2CCCC)cc1 | 2.3 | 0.0002
21 | CCCCc1ncc(C(=O)OC)n1Cc1ccc(-c2ccccc2NS(=O)(=O)NC(=O)C2CC2)cc1 | 10 | 0.032
22 | CCCCc1ncc(C(=O)O)n1Cc1ccc(-c2ccccc2NS(=O)(=O)NC(=O)c2ccccc2)cc1 | > 10 | 0.006
23 | CCCc1nc(CC)c(C=O)n1Cc1ccc(-c2ccccc2S(=O)(=O)NC(=O)c2ccccc2)cc1 | – | 0.0024
